Structures are written as SMILES. Structures can show the parent of a compound that is named as a salt.

T1 sequence (P49841 whole entry): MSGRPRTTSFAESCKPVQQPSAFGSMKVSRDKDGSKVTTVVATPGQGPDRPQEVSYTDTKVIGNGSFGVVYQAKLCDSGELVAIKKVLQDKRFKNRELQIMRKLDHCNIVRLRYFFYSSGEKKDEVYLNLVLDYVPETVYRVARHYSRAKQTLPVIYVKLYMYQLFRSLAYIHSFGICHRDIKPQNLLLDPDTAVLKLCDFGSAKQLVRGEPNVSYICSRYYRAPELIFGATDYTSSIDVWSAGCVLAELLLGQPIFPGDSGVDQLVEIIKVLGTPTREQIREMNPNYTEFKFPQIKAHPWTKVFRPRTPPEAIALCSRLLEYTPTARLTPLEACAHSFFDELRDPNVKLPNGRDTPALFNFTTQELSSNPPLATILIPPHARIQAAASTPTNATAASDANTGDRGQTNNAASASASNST

The test concerns the target T1, recombinant human GSK3β (Homo sapiens, UniProt P49841).
T1 construct: purchased Dundee University, UK
Nature of the test: GSK3β Scintillation Proximity Assay (ATP competition). It is filed as biochemical. Particulars: SPA, 1 μM ATP, 1 μM biotinylated peptide substrate; Ki calculated with Km of ATP 20 μM. Here is the method: Determination of ATP Competition in Scintillation Proximit), GSK3β Assay.
GSK3β Scintillation Proximity Assay.
The competition experiments were carried out in duplicate with 10 different concentrations of the inhibitors in clear-bottom microtiter plates (Wallac, Finland). A biotinylated peptide substrate, Biotin-Ala-Ala-Glu-Glu-Leu-Asp-Ser-Arg-Ala-Gly-Ser(PO3H2)-Pro-Gln-Leu (AstraZeneca, Lund), was added at a final concentration of 1 μM in an assay buffer containing 1 mU recombinant human GSK3β (Dundee University, UK), 12 mM morpholinepropanesulfonic acid (MOPS), pH 7.0, 0.3 mM EDTA, 0.01% β-mercaptorethanol, 0.004% Brij 35 (a […] detergent), 0.5% glycerol and 0.5 μg BSA/25 μl. The reaction was initiated by the addition of 0.04 μCi [γ-^33P]ATP (Amersham, UK) and unlabelled ATP at a final concentration of 1 μM and assay volume of 25 μl. After incubation for 20 minutes at room temperature, each reaction was terminated by the addition of 25 μl stop solution containing 5 mM EDTA, 50 μM ATP, 0.1% Triton X-100 and 0.25 mg streptavidin coated Scintillation Proximity Assay (SPA) beads (Amersham, UK). After 6 hours the radioactivity was determined in a liquid scintillation counter (1450 MicroBeta Trilux, Wallac). The inhibition curves were analysed by non-linear regression using GraphPad Prism, USA. The Km value of ATP for GSK3β, used to calculate the inhibition constants (Ki) of the various compounds, was 20 μM.
Usually Ki stands for the dissociation constant of the complex between target and ligand, obtained from inhibition or displacement. For the compound `COCCCNC(=O)c1c(Br)cnc2[nH]c(-c3ccc(CN4CCOCC4)cc3)nc12` [Example 13, 6-Bromo-S-(3-methoxypropyl)-2-[4-(morpholin-4-ylmethyl)phenyl]-3H-imidazo[4,5-b]pyridine-7-carboxamide], the Ki was 390 nM.

In the case of `COCCCNC(=O)c1c(Cl)cnc2[nH]c(-c3ccc(CN4CCOCC4)cc3)nc12` [Example 14, 6-Chloro-N-(3-methoxypropyl)-2-[4-(morpholin-4-ylmethyl)phenyl]-3H-imidazo[4,5-b]pyridine-7-carboxamide], the Ki is 1400 nM.

For `COCCCNC(=O)c1c(F)cnc2[nH]c(-c3ccc(CN4CCOCC4)cc3)nc12` [Example 21, 6-Fluoro-N-(3-methoxypropyl)-2-[4-(morpholin-4-ylmethyl)phenyl]-3H-imidazo[4,5-b]pyridine-7-carboxamide hydrochloride], the Ki was 779 nM.

Values taken from patent US20100234593A1, “Imidazo[4,5-B]Pyridine-7-Carboxamides 704” (ASTRAZENECA AB, priority 2007, published 2010).
